From publication PMC6152727, “Potential of Icariin Metabolites from Epimedium koreanum Nakai as Antidiabetic Therapeutic Agents” (Molecules : A Journal of Synthetic Chemistry and Natural …, 2017) come the findings set out here.

Holding throughout (type): biochemical
Experiment [1] deals with T1, human recombinant PTP1B (Homo sapiens, UniProt P18031).
T1 construct: purchased Biomol International LP (Plymouth Meeting, PA, USA)
T1 sequence (P18031 1-435): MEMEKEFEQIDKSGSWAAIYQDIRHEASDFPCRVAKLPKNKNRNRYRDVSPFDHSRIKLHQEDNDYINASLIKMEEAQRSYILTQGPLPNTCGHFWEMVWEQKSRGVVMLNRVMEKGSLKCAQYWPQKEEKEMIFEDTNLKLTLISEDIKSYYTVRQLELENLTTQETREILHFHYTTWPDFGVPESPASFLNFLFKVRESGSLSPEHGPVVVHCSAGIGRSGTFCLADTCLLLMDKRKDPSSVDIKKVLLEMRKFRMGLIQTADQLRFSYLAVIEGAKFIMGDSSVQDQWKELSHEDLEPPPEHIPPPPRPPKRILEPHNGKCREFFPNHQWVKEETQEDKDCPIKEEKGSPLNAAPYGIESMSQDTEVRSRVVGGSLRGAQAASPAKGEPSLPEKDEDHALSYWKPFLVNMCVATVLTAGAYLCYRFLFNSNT
Nature of the experiment: PTP1B activity assay (pNPP substrate). Particulars: mean ± SEM of triplicate experiments. How it is done:
The abilities of the aerial parts of E. koreanum and their constituents to inhibit human recombinant PTP1B activity were evaluated using pNPP as a substrate. […] After incubation at 37 °C for 20 min in the dark, the reaction was terminated by addition of 10 M NaOH. The amount of p-nitrophenylate produced by enzymatic dephosphorylation of pNPP was determined by measuring the absorbance at 405 nm using a microplate spectrophotometer (Molecular Devices). Non-enzymatic dephosphorylation of pNPP was corrected by measuring the increase in absorbance at 405 nm obtained in the absence of PTP1B. […] The percent inhibition was calculated as {(AC − AS)/AC} × 100, where AC is the absorbance of the control, and AS is the absorbance of the sample. The IC50 is expressed as the mean ± SEM of triplicate experiments.

The subject of experiment [2] is yeast α-glucosidase. Nature of the experiment: α-Glucosidase activity assay (pNPG substrate). The conditions noted are these: for IC50: mean ± SEM of triplicate experiments, final concentration 20 to 300 μM. On the procedure:
α-Glucosidase enzymatic activity was assayed spectrophotometrically as described previously. Briefly, 60 μL of reaction mixture containing 20 μL of 100 mM phosphate buffer (pH 6.8), 20 μL of 2.5 mM pNPG, and 20 μL of sample (final concentration ranging from 20 to 300 μM, dissolved in 10% DMSO) was added to each well. After incubation at 37 °C for 5 min in the dark, 20 μL of yeast α-glucosidase (0.2 U/mL) in 10 mM phosphate buffer (pH 6.8) was added. The plate was then incubated at 37 °C for 15 min in the dark, after which the reaction was stopped by the addition of 80 μL of 0.2 M sodium carbonate solution. The absorbance was immediately recorded at 405 nm using a microplate spectrophotometer (Molecular Devices). The control consisted of the same reaction mixture but with the sample solution replaced by an equivalent volume of phosphate buffer. […] The inhibition percentage (%) was obtained using the same equation as in the PTP1B enzymatic assay.

Experiment [3] addresses T1, human recombinant PTP1B. Nature of the experiment: Enzyme kinetics analysis of PTP1B (Lineweaver–Burk and Dixon plots). Particulars: for PTP1B Inhibition Type: determined by the Lineweaver–Burk plot. On the procedure:
The inhibition type and inhibition constant (Ki) of the two compounds were determined using Lineweaver–Burk and Dixon plots. Each line of the inhibitors penetrate the same point at the x-intercept, indicating noncompetitive-type inhibition, and the x-axis represent-Kiwhen 1/V = 0. […] The Dixon plot is an established method for determining the enzyme inhibition type and the Ki value for an enzyme-inhibitor complex, where the value of the x-axis indicates Ki.
In order to determine the inhibition mechanism, two complementary kinetics methods were used: Lineweaver–Burk and Dixon plots. The level of enzymatic inhibition at various concentrations of test sample was evaluated by monitoring the effect of different substrate concentrations in Dixon plots (single reciprocal plots). Dixon plots for PTP1B inhibition were obtained in the presence of different concentrations of pNPP. Using Lineweaver–Burk plots (double reciprocal plots), the inhibition modes of the compounds were determined at various concentrations of pNPP with different concentrations of compounds. The enzymatic procedures were the same as for the PTP1B assay methods. The types of inhibition were investigated by interpreting the Dixon plots, in which the value of the x-axis indicates Ki.

A value given as a limit tells only on which side of the number the result lay.

For the compound `COc1ccc(-c2oc3c(CC=C(C)C)c(O[C@@H]4O[C@H](CO)[C@@H](O)[C@H](O)[C@H]4O)cc(O)c3c(=O)c2O[C@@H]2O[C@@H](C)[C@H](O)[C@@H](O)[C@H]2O)cc1` [Icariin, icariin], the IC50 in experiment [1] is over 300 µM. In addition, the “α-glucosidase inhibition (in words)” value in experiment [2] (at any of the tested concentrations) is recorded as “did not inhibit α-glucosidase activity at any of the tested concentrations”.

As to `COc1ccc(-c2oc3c(CC=C(C)C)c(O)cc(O)c3c(=O)c2O)cc1` [Icaritin, icaritin], the figures for the IC50 in experiment [1] and in experiment [2] were 11.6 ± 1.39 µM and 74.42 ± 0.01 µM, respectively. Besides, the Ki in experiment [3] (determined by the Dixon plot) is 11.4 µM. In addition, the “PTP1B Inhibition Type” value in experiment [3] was “Non-competitive”.

For the compound `COc1ccc(-c2oc3c(CC=C(C)C)c(O[C@@H]4O[C@H](CO)[C@@H](O)[C@H](O)[C@H]4O)cc(O)c3c(=O)c2O[C@@H]2O[C@@H](C)[C@H](O)[C@@H](O)[C@H]2O[C@@H]2OC[C@@H](O)[C@H](O)[C@H]2O)cc1` [Epimedin B, epimedin B], the IC50 is over 300 µM in experiment [1] and 452 ± 5.36 µM in experiment [2].

With icariside II, the IC50 in experiment [2] amounted to 106.6 ± 0.44 µM. Further, the “PTP1B Inhibition Type” value in experiment [3] is recorded as “Non-competitive”.

For the compound `COc1ccc(-c2oc3c(CC=C(C)C)c(O[C@@H]4O[C@H](CO)[C@@H](O)[C@H](O)[C@H]4O)cc(O)c3c(=O)c2O[C@@H]2O[C@@H](C)[C@H](O)[C@@H](O)[C@H]2O[C@@H]2O[C@@H](C)[C@H](O)[C@@H](O)[C@H]2O)cc1` [Epimedin C, epimedin C], the IC50 in experiment [1] is over 300 µM; in experiment [2], 403.9 ± 1.53 µM.

On to `COc1ccc(-c2oc3c(CC=C(C)C)c(OC4OC(CO)C(O)C(O)C4O)cc(O)c3c(=O)c2OC2OC(C)C(O)C(O)C2OC2OC(CO)C(O)C(O)C2O)cc1` (centres unmarked) [Epimedin A, epimedin A], for which the IC50 is over 300 µM in experiment [1] and 444.1 ± 3.8 µM in experiment [2].

As usually defined, the IC50 is the concentration that gives 50% inhibition. Broadly, the Ki is a dissociation constant, usually derived from enzyme kinetics or from competition with a known ligand.
